The values below come from patent US12410155B2, “Salt form and crystal form of tetrahydrocyclohepta indazole compound” (Zhejiang Yangli Pharmaceutical Technology Co., Ltd., priority 2021, dated 2025).

In experiment [1] the test system is MCF-7 cells. Nature of the experiment: MCF-7 cell proliferation inhibition assay (CTG). The note with it: Homo sapiens. It counts as cell-based. As for the experimental part: (4) MCF-7, T-47D, and CAMA-1 Cell Proliferation Inhibition Assay
The inhibitory effect of the test compound of formula (I) on the proliferation of MCF-7, CAMA-1, and T-47D cells was analyzed. For MCF-7 cells, ten concentration gradients ranging from 100 nM to 0.0003815 nM were tested, with three replicates for each concentration. For CAMA-1 cells, nine concentration gradients ranging from 100 nM to 0.001526 nM were tested, also with three replicates for each concentration. For T-47D cells, nine concentration gradients ranging from 2 μM to 0.00512 nM were tested, with three replicates for each concentration. Each experiment was conducted twice independently.
MCF-7 cells that reached 80% cell fusion were digested using trypsin, centrifuged, resuspended, and counted. Cell suspensions were prepared using the corresponding culture medium, and 45 μL of the suspension was added to each well of a 384-well plate. The plate was then incubated at 37° C. in a cell incubator with 5% CO2. The test compound of formula (I) was dissolved in DMSO to an initial concentration of 20 μM and subjected to a 4-fold serial dilution to achieve ten different concentrations. After overnight incubation, the diluted compound was further diluted with the corresponding cell culture medium. The resulting mixture was transferred to the respective wells of the cell plate, starting with a final concentration of 100 nM, followed by a 4-fold serial dilution to achieve ten concentrations. The positive control wells contained 2 μM fulvestrant. The plate was mixed, centrifuged, and incubated at 37° C. in a cell incubator with 5% CO2 for the specified number of days according to the above table.
After incubation for the specified time, the cell culture plate was removed, and the CTG reagent was added. The plate was thoroughly mixed, centrifuged, and incubated at room temperature for 10 minutes. The readings were taken using the Envision multi-label analyzer. Data analysis:
Positive control: cells treated with 2 μM fulvestrant; negative control: cells treated with 0.5% DMSO. […]

Experiment [2] addresses T1, Estrogen receptor α (ERα) (Homo sapiens, UniProt P03372).
T1 construct: host or cells: insect Sf9 cells
T1 sequence (P03372 1-595): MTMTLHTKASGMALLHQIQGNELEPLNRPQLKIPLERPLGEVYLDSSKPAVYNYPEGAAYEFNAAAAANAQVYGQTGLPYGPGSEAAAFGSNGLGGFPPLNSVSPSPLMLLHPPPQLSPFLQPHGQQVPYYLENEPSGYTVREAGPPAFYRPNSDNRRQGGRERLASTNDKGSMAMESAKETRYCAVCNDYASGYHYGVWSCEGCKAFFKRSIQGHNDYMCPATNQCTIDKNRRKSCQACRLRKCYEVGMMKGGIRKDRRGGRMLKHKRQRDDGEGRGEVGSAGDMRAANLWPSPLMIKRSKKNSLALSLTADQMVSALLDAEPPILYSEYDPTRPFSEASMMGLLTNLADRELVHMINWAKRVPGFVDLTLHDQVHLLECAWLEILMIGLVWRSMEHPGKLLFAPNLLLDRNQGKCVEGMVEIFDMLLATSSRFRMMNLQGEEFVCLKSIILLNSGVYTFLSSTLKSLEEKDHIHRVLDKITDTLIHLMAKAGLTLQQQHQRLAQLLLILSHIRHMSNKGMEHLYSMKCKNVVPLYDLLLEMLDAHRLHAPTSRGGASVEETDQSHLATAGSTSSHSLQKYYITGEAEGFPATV
Nature of the experiment: ERα binding assay (radioactive ligand binding). As for the experimental part: (1) ERα Binding Assay: Assessment of the Activity of the Compound of Formula (I) Via Radioactive Ligand Binding Assay
The method employed in this study was adopted from scientific literature (Obourn, J. D. et al., Biochemistry, 1993, 32, 6229-6236).
The IC50 values were obtained using MathIQ™ software (ID Business Solutions Ltd., UK) employing a nonlinear, least-squares regression method. The presented inhibition constant (Ki) was calculated using the Cheng and Prusoff equation (Cheng, Y., Prusoff, W. H., Biochem. Pharmacol. 22:3099-3108, 1973) based on the experimentally determined IC50 of the test compound, the concentration of the radioactive ligand used in the assay, and the historical value of the ligand's KD (determined experimentally by Eurofins Panlabs, Inc.). As shown, the Hill coefficient (nH), which defines the slope of the competitive binding curve, was calculated using MathIQ™.

Take `FCCCN1CC[C@H](Nc2cnc(C3=C(CC(F)(F)F)CCCc4c3ccc3[nH]nc(F)c43)cn2)C1` [Compound of formula (I)]: the IC50 in experiment [1] (MCF7, First experiment) stood at 0.19 nM; in experiment [1] (MCF7, Mean ± SD), 0.18 ± 0.013 nM; in experiment [1] (MCF7, Second experiment), 0.16 nM; in experiment [2] (0.5 nM [3H] estradiol) it was 0.36 nM. Further, the “nH (Hill coefficient)” value in experiment [2] is reported as 1.22. Moreover, the inhibition constant (Ki) in experiment [2] (Cheng and Prusoff equation) is 0.1 nM. Also, in experiment [2] (concentration 12.8 pM, read-out: Inhibition rate (%)), the inhibition at 12.8 pM was -4%. In experiment [2] (concentration 0.064 nM, read-out: Inhibition rate (%)), the inhibition at 64 pM was determined as 9%. For the same molecule, in experiment [2] (concentration 0.32 nM, read-out: Inhibition rate (%)), the inhibition at 0.00032 µM was found to be 48%. Further, the inhibition at 0.0016 µM in experiment [2] (concentration 1.6 nM, read-out: Inhibition rate (%)) came to 84%. In addition, the inhibition at 0.008 µM in experiment [2] (concentration 8 nM, read-out: Inhibition rate (%)) amounted to 97%. For the same molecule, the inhibition at 0.04 µM in experiment [2] (concentration 0.04 μM, read-out: Inhibition rate (%)) is 98%. The inhibition at 0.2 µM in experiment [2] (concentration 0.2 μM, read-out: Inhibition rate (%)) was found to be 97%. The inhibition at 1 µM in experiment [2] (concentration 1 μM, read-out: Inhibition rate (%)) is 97%.

In general, IC50 refers to the midpoint of a concentration-inhibition curve. In general, Ki refers to a measure of affinity in units of concentration, obtained from inhibition or displacement. One may read the inhibition as the change of the read-out against control, counted positive when it falls.
